Data taken from patent US8759513B2, “Polymorphic form of rifaximin and process for its preparation” (Sequent Scientific Limited, priority 2011, dated 2014).

Test: Stability of amorphous rifaximin on storage, followed by PXRD spectroscopy
Format: physicochemical
Settings: as indicated by the PXRD spectroscopy

effect of external parameters such as ambient humidity (ambient humidity): unaffected
SMILES: CO[C@H]1/C=C/O[C@@]2(C)Oc3c(C)c(O)c4c(O)c(c5c(nc6cc(C)ccn65)c4c3C2=O)NC(=O)/C(C)=C\C=C\[C@H](C)[C@H](O)[C@@H](C)[C@@H](O)[C@@H](C)[C@H](OC(C)=O)[C@@H]1C [amorphous rifaximin, (2S,16Z,18E,20S,21S,22R,23R,24R,25S,26S,27S,28E)-5,6,21,23,25-pentahydroxy-27-methoxy-2,4,11,16,20,22,24,26-octamethyl-2,7-(epoxypentadeca-[1,11,13]trienimino)benzofuro[4,5-e]pyrido[1,2-α]-benzimidazole-1,15(2H)-dione, 25-acetate]
chemical and polymorphic stability on storage (on storage): very stable chemically and polymorphically on storage
